Reference: patent US20250312323A1 (Cavion, Inc., priority 2018, published 2025)
Values joined by “and” are separate entries in the source; they are usually repeats but may differ in a detail not shown here. Equal entries are not always repeated. Where two headings read alike, the source gives them in different places.

Columns and labels:
[1] = tested on: harmaline-induced tremor model in rats; conditions: 3 ascending doses per os; cited from earlier work
[2] = assay type: in vivo; conditions: rat NOAEL 300 mg/kg
[3] = assay type: in vivo; conditions: dog NOAEL 30 mg/kg
[4] = Single-dose crossover pharmacokinetics of IR, MR1 and MR2 capsules (8 mg); assay type: in vivo, human; design: AUC72hr: unit not given beside the values; conditions: plasma, following a single 8 mg dose of IR CX-8998

Row | SMILES | harmaline-induced tremor [1] | physiologic tremor before administration of harmaline [1] | Total safety margin, AUC24 hr (animal AUC / human estimated AUC at steady state, 10 mg BID) ([2]; Day 90, female) [fold] | Total safety margin, Css (animal Cmax / human estimated Css at steady state, 10 mg BID) ([2]; Day 90, female) [fold] | Total safety margin, AUC24 hr (animal AUC / human estimated AUC at steady state, 10 mg BID) ([2]; Day 90, male) [fold] | Total safety margin, Css (animal Cmax / human estimated Css at steady state, 10 mg BID) ([2]; Day 90, male) [fold] | Total safety margin, AUC24 hr (animal AUC / human estimated AUC at steady state, 10 mg BID) ([3]; Day 90, female) [fold] | Total safety margin, Css (animal Cmax / human estimated Css at steady state, 10 mg BID) ([3]; Day 90, female) | Total safety margin, AUC24 hr (animal AUC / human estimated AUC at steady state, 10 mg BID) ([3]; Day 90, male) [fold] | Total safety margin, Css (animal Cmax / human estimated Css at steady state, 10 mg BID) ([3]; Day 90, male) [fold] | AUC72hr [4] | Cmax [4] [µM]
1 | CC1(C)C[C@@H](CN2CCC(F)(CNC(=O)c3cc(Cl)cc(Cl)c3)CC2)CCO1 [TTA-P2] | dose-dependent response | dose-dependent response to a reduction in physiologic tremor |  |  |  |  |  |  |  |  |  | 
2 | C=C(C)c1ccc(CC(=O)N[C@H](C)c2ccc(OCC(F)(F)F)cn2)cc1 [M01] |  |  | 13 | 21 | 6.8 | 13 | 5.6 | 8 fold and 8.0 fold | 6.5 | 10 | 6876 | 0.124
3 | C[C@@H](NC(=O)Cc1ccc(C(C)(C)O)cc1)c1ccc(OCC(F)(F)F)cn1 [M02] |  |  |  |  |  |  |  |  |  |  |  | 0.122
